According to US20020177180A1, “pH-indicator based assay for selective enzymes” (ThermoGen, Inc., priority 1998, published 2002):

Key:
Assay type in all cases: biochemical
[1] = test system: ThermoGen esterases; experiment: Initial screening (pH indicator): esters as substrates of the ThermoGen esterases, statements for the esterases as a group; conditions: for quality as substrate of the ThermoGen esterases (in words), enantiomer pairs: enantiomer pair library, Tables 8-12; for estimated enantioselectivities with ThermoGen esterases (in words): ratio of initial rates of enantiomer pairs
Procedure: (§1) Initial screening measures the initial rate of hydrolysis of different esters. The rate of reaction was measured by monitoring the release of protons using a pH indicator, 4-nitrophenol. In this assay, the yellow color of the phenoxide disappears as the reaction proceeds. The amount of ester hydrolyzed can be measured quantitatively, as is known in the art.
(§2) To survey the substrate selectivity of the ThermoGen esterases, the ability of the enzymes to hydrolyze thirty-one different commercially-available esters, Scheme 1 (FIG. 9, Table 6).
To evaluate the potential of the ThermoGen esterases for enantioselective reactions, the initial rates of hydrolysis of the esterases were measured using twenty-one pairs of enantiomers, Scheme 2, FIG. 10 and Tables 8-12. The ratio of these initial rates is an estimated enantioselectivity.

[2] = test system: esterase E011; experiment: Initial screening of ThermoGen esterases toward esters 1-31 (pH indicator), specific activity; conditions: 1 mM substrate, pH 7.2, 7 vol % acetonitrile, 25° C.
Procedure: as §1

[3] = test system: esterase E006; experiment: as above; conditions: 1 mM substrate, pH 7.2, 7 vol % acetonitrile, 25° C.
Procedure: as §1, §2

[4] = test system: esterase E012; experiment: as above; conditions: 1 mM substrate, pH 7.2, 7 vol % acetonitrile, 25° C.
Procedure: as §1, §2

[5] = test system: esterase E014; experiment: as above; conditions: 1 mM substrate, pH 7.2, 7 vol % acetonitrile, 25° C.
Procedure: as §1, §2

[6] = test system: esterase E015; experiment: as above; conditions: 1 mM substrate, pH 7.2, 7 vol % acetonitrile, 25° C.
Procedure: as §1, §2

[7] = test system: esterase E016; experiment: as above; conditions: 1 mM substrate, pH 7.2, 7 vol % acetonitrile, 25° C.
Procedure: as §1, §2

[8] = test system: esterase E020; experiment: as above; conditions: 1 mM substrate, pH 7.2, 7 vol % acetonitrile, 25° C.
Procedure: as §1, §2

CCCC(=O)OCC1COC(C)(C)O1 (single isomer, unassigned) [Substrate 32]
quality as substrate of the ThermoGen esterases (in words), enantiomer pairs [1]: best substrates

O=C(OCC1CO1)c1ccc([N+](=O)[O-])cc1 (single isomer, unassigned) [Substrate 33]
quality as substrate of the ThermoGen esterases (in words), enantiomer pairs [1]: best substrates

CC1(COC(=O)c2ccc([N+](=O)[O-])cc2)CO1 (single isomer, unassigned) [Substrate 34]
estimated enantioselectivities with ThermoGen esterases (in words) [1]: estimated enantioselectivities above two with several esterases

CCCCCCCC(=O)OCC1COC(C)(C)O1 (single isomer, unassigned) [Substrate 35]
quality as substrate of the ThermoGen esterases (in words), enantiomer pairs [1]: best substrates

CCCC(=O)OC(C)c1ccccc1 (single isomer, unassigned) [Substrate 38]
estimated enantioselectivities with ThermoGen esterases (in words) [1]: higher estimated enantioselectivities with most ThermoGen esterases

COC(=O)C(C)CO (single isomer, unassigned) [Substrate 39]
quality as substrate of the ThermoGen esterases (in words), enantiomer pairs [1]: poorest substrates

COC(=O)CC(C)O (single isomer, unassigned) [Substrate 40]
quality as substrate of the ThermoGen esterases (in words), enantiomer pairs [1]: poorest substrates

COC(=O)C1COC(C)(C)O1 (single isomer, unassigned) [Substrate 43]
estimated enantioselectivities with ThermoGen esterases (in words) [1]: estimated enantioselectivities above two with several esterases

COC(=O)C(C)CBr (single isomer, unassigned) [Substrate 44]
estimated enantioselectivities with ThermoGen esterases (in words) [1]: estimated enantioselectivities above two with several esterases

COC(=O)C(C)Cl (single isomer, unassigned) [Substrate 45]
estimated enantioselectivities with ThermoGen esterases (in words) [1]: higher estimated enantioselectivities with most ThermoGen esterases

COC(=O)C(O)c1ccccc1 (single isomer, unassigned) [Substrate 46]
quality as substrate of the ThermoGen esterases (in words), enantiomer pairs [1]: poorest substrates

COC(=O)C(C)N (single isomer, unassigned) [Substrate 47]
quality as substrate of the ThermoGen esterases (in words), enantiomer pairs [1]: poorest substrates | estimated enantioselectivities with ThermoGen esterases (in words) [1]: estimated enantioselectivities above two with several esterases

CCOC(=O)C1CCC(=O)N1 (single isomer, unassigned) [Substrate 48]
quality as substrate of the ThermoGen esterases (in words), enantiomer pairs [1]: poorest substrates

CCC(C)OC(C)=O (centres unmarked) [Substrate 28]
Specific activity, esterase E011 [2]: 0.19 mmol ester hydrolyzed/min/mg protein | Specific activity, esterase E006 [3]: 0.16 mmol ester hydrolyzed/min/mg protein | Specific activity, esterase E012 [4]: <2 mmol ester hydrolyzed/min/mg protein | Specific activity, esterase E014 [5]: <0.1 mmol ester hydrolyzed/min/mg protein | Specific activity, esterase E015 [6]: 0.29 mmol ester hydrolyzed/min/mg protein | Specific activity, esterase E016 [7]: <2 mmol ester hydrolyzed/min/mg protein | Specific activity, esterase E020 [8]: 2.1 mmol ester hydrolyzed/min/mg protein

CCCC(=O)OCC(COC(=O)CCC)OC(=O)CCC [Substrate 29]
Specific activity, esterase E011 [2]: 450 mmol ester hydrolyzed/min/mg protein | Specific activity, esterase E006 [3]: 370 mmol ester hydrolyzed/min/mg protein | Specific activity, esterase E012 [4]: 37 mmol ester hydrolyzed/min/mg protein | Specific activity, esterase E014 [5]: 280 mmol ester hydrolyzed/min/mg protein | Specific activity, esterase E015 [6]: 550 mmol ester hydrolyzed/min/mg protein | Specific activity, esterase E016 [7]: 130 mmol ester hydrolyzed/min/mg protein | Specific activity, esterase E020 [8]: 560 mmol ester hydrolyzed/min/mg protein

CCCC(=O)OCC1CO1 (centres unmarked) [Substrate 30]
Specific activity, esterase E011 [2]: 1.2 mmol ester hydrolyzed/min/mg protein | Specific activity, esterase E006 [3]: 3.5 mmol ester hydrolyzed/min/mg protein | Specific activity, esterase E012 [4]: 3.4 mmol ester hydrolyzed/min/mg protein | Specific activity, esterase E014 [5]: 0.53 mmol ester hydrolyzed/min/mg protein | Specific activity, esterase E015 [6]: 3.2 mmol ester hydrolyzed/min/mg protein | Specific activity, esterase E016 [7]: 14 mmol ester hydrolyzed/min/mg protein | Specific activity, esterase E020 [8]: 2.0 mmol ester hydrolyzed/min/mg protein
